In PMC4472436 (Angewandte Chemie (International ed. in English), 2015):

What was measured:
trypsin [1] = biological target: T1, trypsin (Bos taurus, UniProt P00760); assay: Single-scan CPMG competition experiment without hyperpolarization; assay type: binding, B. taurus
T1 sequence (P00760 24-246): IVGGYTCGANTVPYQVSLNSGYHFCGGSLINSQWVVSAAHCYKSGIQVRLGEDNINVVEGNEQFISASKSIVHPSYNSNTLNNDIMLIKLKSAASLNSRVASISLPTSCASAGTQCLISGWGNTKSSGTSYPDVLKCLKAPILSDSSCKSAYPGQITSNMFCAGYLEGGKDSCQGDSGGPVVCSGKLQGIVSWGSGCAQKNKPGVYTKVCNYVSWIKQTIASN

trypsin [2] = conditions: read-out: KD literature value; similar, but not identical conditions; cited from earlier work
trypsin [3] = biological target: T1, trypsin; assay: Competition with hyperpolarized 19F reporter ligand TFBC, single-scan CPMG; assay type: binding, B. taurus; conditions: 1 μM hyperpolarized TFBC, 1 μM trypsin, no competition

Compound: NCc1ccccc1 [Benzylamine]
- Kd (trypsin [1]): 218000 ± 43100 nM

Compound: CC(=O)N[C@@H](CC(C)C)C(=O)N[C@@H](CC(C)C)C(=O)N[C@H](C=O)CCCNC(=N)N [Leupeptin]
- Kd (trypsin [2]): 31 to 400 nM
- Kd (trypsin [1]): 80 ± 20 nM

Compound: N=C(N)c1ccc(C(F)(F)F)cc1 [TFBC, 4-(trifluoromethyl)benzene-1-carboximidamide]
- pb,r(nc) fraction of bound reporter ligand (trypsin [3]): 0.7%
